Measured values reported in US8183238B2, “Bicyclic and tricyclic compounds as KAT II inhibitors” (priority 2009, dated 2012).
Where two headings read alike, the source gives them in different places.

How the values were obtained:
[1] = target: human KAT II (hKAT II) enzyme (Homo sapiens, UniProt Q8N5Z0); test: KAT II Inhibition Spectra Assay; format: biochemical; settings: Table 5; hKAT II, decrease in OD370, 37° C., 15-20 h; read-out: KATII IC50
Method in brief: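 hKAT II (15 nM, 3× stock) converts L-kynurenine (3 mM, 3× stock) with α-ketoglutarate and PLP in Tris acetate; 15–20 h at 37 °C. Inhibition of the OD370 decrease read versus DMSO wells across a concentration range gives IC50.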

[2] = Prodrug in vivo pharmacokinetics in dogs (plasma, LC-MS-MS); design: species or system Dog (Beagle); settings: Beagle, dog, in vivo, po, 1 mg/kg
Protocol: Test substances (Examples 4 and 71-73) were administered by oral gavage to groups of two dogs. Example 71 was also administered intravenously.
Blood samples were taken at various times after administration and submitted to analysis for the parent drug (Example 71) and pro-drug (Examples 72 and 73) using an LC-MS-MS assay. Pharmacokinetic parameters derived from the plasma analytical data were determined using Watson LIMS 7.2.003 (Thermo Fisher Scientific, Waltham, Mass.). The results are given in FIG. 1 and Tables 8, 9, 10, and 11.

[3] = Prodrug in vivo pharmacokinetics in monkeys (plasma, LC-MS-MS); design: species or system Monkey (Cynomolgus); settings: Example 4 in monkey plasma after oral Example 4 (10 mg/kg active); for Cmax / Tmax / half-life / AUC: Cynomolgus, cynomolgus monkey, plasma, po, 10 mg/kg; for F: calculated using IV AUC of 265 ng · h/mL
Protocol: Test substances (Examples 4 and 71-73) were administered by oral gavage to groups of two monkeys.
Blood samples were taken at various times after administration and submitted to analysis for the parent drug (Example 4 and Example 71) and pro-drug (Examples 72 and 73) using an LC-MS-MS assay. […] Pharmacokinetic parameters derived from the plasma analytical data were determined using Watson LIMS 7.2.003 (Thermo Fisher Scientific, Waltham, Mass.). The results are given in FIG. 2 and Tables 13, 14, and 15.

[4] = Prodrug in vivo pharmacokinetics in rats (plasma, LC-MS-MS); settings: Wistar-Han, rat
Protocol: Test substances (Examples 4, 73, and 366-369) were administered by oral gavage to groups of three rats.
Blood samples were taken at various times after administration and analyzed for the parent drug (Example 4) and prodrugs (Examples 73 and 366-369) using an LC-MS-MS assay. Pharmacokinetic parameters derived from the plasma analytical data were determined using Watson LIMS version 7.2.003 (Thermo Fisher Scientific, Waltham, Mass.).

[5] = Prodrug in vivo pharmacokinetics in monkeys (plasma, LC-MS-MS); settings: Cynomolgus, cynomolgus monkey, iv, 0.3 mg/kg, plasma exposure of Example 4 in monkeys following intravenous administration of Example 4 at 0.3 mg/kg

Sequence of human KAT II (hKAT II) enzyme (Q8N5Z0 30-425): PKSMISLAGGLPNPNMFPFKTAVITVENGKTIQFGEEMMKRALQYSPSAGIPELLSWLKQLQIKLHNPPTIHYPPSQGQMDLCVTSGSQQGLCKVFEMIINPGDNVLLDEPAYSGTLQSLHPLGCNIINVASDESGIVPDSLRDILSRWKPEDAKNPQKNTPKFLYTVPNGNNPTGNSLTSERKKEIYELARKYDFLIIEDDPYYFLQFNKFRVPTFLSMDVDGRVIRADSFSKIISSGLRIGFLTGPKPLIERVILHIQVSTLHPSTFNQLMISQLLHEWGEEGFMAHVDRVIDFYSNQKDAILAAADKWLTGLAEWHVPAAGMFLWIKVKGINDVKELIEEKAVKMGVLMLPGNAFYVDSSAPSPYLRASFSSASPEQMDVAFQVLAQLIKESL

N[C@H]1Cc2ccccc2N(O)C1=O [Example 4, (3S)-3-amino-1-hydroxy-3,4-dihydroquinolin-2(1H)-one]
IC50 [1]: 37.5 nM | AUC increase vs. oral administration of Ex. 4 [2]: 1.0 | Cmax ([3]; Mean): 220 ng/mL | Tmax ([3]; Mean): 41.4 min | half-life ([3]; Mean): 43.8 min | AUC ([3]; Mean, read-out: AUC): 181 ng·h/mL | AUC ([3]; Mean, read-out: AUC Extrap): 186 ng·h/mL | Cmax ([3]; Monkey 1): 200 ng/mL | Tmax ([3]; Monkey 1): 60 min | half-life ([3]; Monkey 1): 46.8 min | AUC ([3]; Monkey 1, read-out: AUC): 184 ng·h/mL | AUC ([3]; Monkey 1, read-out: AUC Extrap): 188 ng·h/mL | Cmax ([3]; Monkey 2): 340 ng/mL | Tmax ([3]; Monkey 2): 15 min | half-life ([3]; Monkey 2): 49.2 min | AUC ([3]; Monkey 2, read-out: AUC): 239 ng·h/mL | AUC ([3]; Monkey 2, read-out: AUC Extrap): 247 ng·h/mL | Cmax ([3]; Monkey 3): 206 ng/mL | Tmax ([3]; Monkey 3): 30 min | half-life ([3]; Monkey 3): 40.8 min | AUC ([3]; Monkey 3, read-out: AUC): 141 ng·h/mL | AUC ([3]; Monkey 3, read-out: AUC Extrap): 144 ng·h/mL | Cmax ([3]; Monkey 4): 133 ng/mL | Tmax ([3]; Monkey 4): 60 min | half-life ([3]; Monkey 4): 37.8 min | AUC ([3]; Monkey 4, read-out: AUC): 159 ng·h/mL | AUC ([3]; Monkey 4, read-out: AUC Extrap): 163 ng·h/mL | % AUC Extrap ([3]; Mean): 2.46% | % AUC Extrap ([3]; Monkey 1): 2.28% | % AUC Extrap ([3]; Monkey 2): 3.05% | % AUC Extrap ([3]; Monkey 3): 1.96% | % AUC Extrap ([3]; Monkey 4): 2.56% | F ([3]; Mean): 2.1% | F ([3]; Monkey 1): 2.1% | F ([3]; Monkey 2): 2.8% | F ([3]; Monkey 3): 1.6% | F ([3]; Monkey 4): 1.8% | AUC increase vs. oral administration of Ex. 4 [4]: 1.0 | AUC [5]: 265 ng·h/mL
